Assay results reported in US9120946B2, “Active energy ray curing type composition, container that accommodates composition, inkjet discharging device having container, and cured matter” (RICOH COMPANY, LTD., priority 2013, dated 2015).

Columns and labels:
female mice = test: skin sensitization test based on the LLNA (Local Lymph Node Assay), SI value by BrdU intake; assay type: in vivo; conditions: test substance 50.0 W/v % in acetone/olive oil 4:1, 25 μL to both auricles once a day for 3 days, SI less than 3 = negative
Procedure: The individuals remaining after the categorization were excluded from the test.
The test substance was weighed in a measuring flask, and the volume of the test substance was adjusted to 1 mL with the medium. The thus-prepared test substance preparation was placed in a light-shielded airtight container (made of glass).
This treatment was performed once a day for three consecutive days.
The surrounding tissue of each auricular lymph node was removed, and the auricular lymph nodes from both the auricles were collectively weighed.
After returning the auricular lymph nodes to room temperature, the auricular lymph nodes were mashed with the gradual addition of physiological saline, and suspended therein. The thus-obtained suspension was filtrated and thereafter dispensed into the wells of a 96-well microplate, with 3 wells being used per individual. The thus-dispensed suspensions were measured for intake of BrdU by the ELISA method. […] A multiplate reader (FLUOSTAR OPTIMA, product of BMG LABTECH Inc.) was used to measure the absorbance of each well (OD: 370 nm to 492 nm, the intake of BrdU), and the average of the absorbance of the 3 wells for each individual was used as the measurement of BrdU for the individual.

[1] = evaluation in Material Safety Data Sheet; cited from earlier work

Row | Molecule | SI values in LLNA test (female mice) | skin sensitization in MSDS [1]
1 | C=C(C)C(=O)OCCOCCOC(=O)C(=C)C [a1, diethyleneglycol dimethacrylate] | 1.1 | –
2 | caprolactone-modified dipentaerythritol hexaacrylate [a2] | – | Negative in MSDS
3 | polypropylene glycol diacrylate [a5] | 1.5 | –
